Laboratory results taken from patent US20060019971A1, “Treatment of cardiovascular disease with inhibitors of p38 kinase” (priority 2003, published 2006).

What was measured:
[1] = tested on: TNFα secretion from HPBMCs; test: TNFα secretion from HPBMCs, ELISA; assay type: cell-based, human; settings: 1 μM SD, 6 hours
Protocol: 5×10^6 HPBMCs were plated in 6-well. After 1 hour medium was removed and cells were treated with vehicle or 1μM p38 inhibitor in RPMI 1640 medium. After 1 hour cells were stimulated with 10% FCS only or 10 μg/ml CRP plus 10% FCS. After 6 hours conditioned medium was collected and IL-1b and TNFa levels were determined by ELISA. […] 5×10^6 HPBMCs were plated in 6-well. After I hour medium was removed and cells were treated with vehicle or […] p38 inhibitor in RPMI 1640 medium. After 1 hour cells were stimulated with 10% FCS only or 10 μg/ml CRP plus 10% FCS. After 2 hours RNA was extracted from the cells and TNFa (c) and IL-1b (d) expression levels were determined by real-time PCR as described in the Experimental section. […]
(§1) Conditioned media from the treated cells were collected (6 to 20 hrs), and the level of secreted interleukin 6 (IL-6), interleukin 1 beta (IL-1 β), tumor necrosis factor alpha (TNFα), and interleukin 8 (IL-8) was determined by ELISA according to the manufacturer's instruction (Biosource International, Camarillo, Calif.). […]
TNFα and IL-β are initial inflammatory cytokines produced when monocytes are activated during infalmmation. […] HPBMCs were incubated with either 10% FCS or CRP plus 10% FCS for 6 hours and secreted cytokines TNFα and IL-1β were measured by ELISA. […]

[2] = target: T1, p38 MAP kinase (Homo sapiens, UniProt Q16539); test: p38 MAP kinase phosphorylation assay (similar to Kumar); assay type: biochemical; settings: assay similar to the phosphorylation assay (Kumar)
T1 construct: expressed in transfected cells; kinase immunoprecipitated from lysates
Protocol: Alternative assays involving in vitro analysis of potential inhibitors include those where cells (HeLa) transfected with DNA coding for relevant kinases can be activated with substances such as sorbitol, IL-1, TNF, or PMA (phorbol myristate acetate). After immunoprecipitation of cell lysates, equal aliquots of immune complexes of the kinases are pre-incubated for an adequate time with a specific concentration of the potential inhibitor followed by addition of kinase substrate buffer mix containing labeled ATP and GST-ATF2 or MBP. After incubation, kinase reactions are ceased by the addition of SDS loading buffer. Phosphorylated substrate is resolved through SDS-PAGE and visualized and quantitated in a phosphorimager. Both p38 regulation, in terms of phosphorylation, and IC50 values can be determined by quantitation. See, for example Kumar,S., McDonnell, P., Gum, R., Hand, A., Lee, J., and Young, P. (1997) Biochem. Biophys. Res. Commun. 235, 533-538.

[3] = tested on: IL-8 secretion from HPBMCs; test: IL-8 secretion from HPBMCs, ELISA; assay type: cell-based, human; settings: 1 μM SD pre-treatment, all the conditions (control, CRP, FCS, CRP plus FCS), 6 hours
Protocol: 8×10^5 HPBMCs were plated in 96-well. After 1 hour medium was removed and cells were incubated with or without 10 μg/ml of purified human CRP in serum-free RPMI 1640. In parallel experiments cells were treated with 10% FCS together with the CRP treatment. For the p38 antagonism, p38 inhibitor was added to a final concentration of 1 μM in the parallel treatment. After 6 hours conditioned medium were collected and IL-6 and IL-8 levels were determined by ELISA. […] 5×10^6 HPBMCs were plated in 6-well. After 1 hour medium was removed and cells were treated with vehicle or 1 μM p38 inhibitor in RPMI 1640 medium. After 1 hour cells were stimulated with 10% FCS only or 10 μg/ml CRP plus 10% FCS. After 2 hours RNA was extracted from the cells and IL-8 expression level was determined by real-time PCR as described in the Experimental section.
Cryopreserved human peripheral blood monocytes (HPBMCs, from Biowitker, Walkersvill, Md.) were thawed and washed twice in RPMI 1640. Cells were plated in tissue culture plates and incubated in 5% CO2 at 37 C. […]
as §1

T1 sequence (Q16539 whole entry): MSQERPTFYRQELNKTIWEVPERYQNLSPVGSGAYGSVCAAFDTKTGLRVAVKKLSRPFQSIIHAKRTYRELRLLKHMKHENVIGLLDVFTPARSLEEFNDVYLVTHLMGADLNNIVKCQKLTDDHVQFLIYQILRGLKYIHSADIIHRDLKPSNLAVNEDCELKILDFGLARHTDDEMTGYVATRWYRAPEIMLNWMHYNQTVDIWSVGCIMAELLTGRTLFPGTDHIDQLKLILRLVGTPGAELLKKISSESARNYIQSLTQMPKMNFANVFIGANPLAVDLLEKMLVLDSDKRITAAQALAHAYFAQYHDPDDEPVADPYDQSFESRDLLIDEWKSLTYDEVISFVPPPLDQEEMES

C[C@@H]1CN(Cc2ccc(F)cc2)[C@@H](C)CN1C(=O)c1cc2c(C(=O)C(=O)N(C)C)c[nH]c2cc1Cl [Compound 162]
FCS induced TNFα secretion, sensitivity to p38 inhibition ([1]; 10% FCS): sensitive | inhibition of CRP-invoked TNFα secretion ([1]; CRP plus 10% FCS): strongly inhibited | p38 MAP kinase activity [2]: exhibit p38 MAP kinase activity | inhibition of IL-8 secretion [3]: almost completely inhibited
